Measured values reported in patent US8329674B2, “Film forming dental compositions and related methods” (3M Innovative Properties Company, priority 2007, dated 2012).
Where a name gives a salt, the structure may show the parent alone.

Key:
Format in all cases: cell-based
[1] = test system: Streptococcus mutans culture (ATCC 25175); test: Quantitative Biofilm Inhibition Test; settings: 1 weight percent compound, broth with 1.0 weight percent sucrose, approx. twenty hours at 37° C., average OD at 550 nm as percentage of control (100%); for activity at 1 % w/w: Streptococcus mutans, ATCC25175, 20 h, read-out: OD Ratio
Protocol: Compounds of the dental compositions of the invention, and comparative compounds, were evaluated for biofilm inhibition activity. Composite dental restorative (available under the trade designation “FILTEK SUPREME” from 3M ESPE Dental Products, St. Paul, Minn.) was placed in a 15 millimeter by 1 millimeter stainless steel die. […] While the die containing the composite restorative was under compression, the composite was irradiated for two minutes using a Model ACE light source (available from SCHOTT North America, Inc., Auburn, N.Y.). The discs of cured composite restorative were then further cured using a Model UniXS light box (available from Heraeus Kulzer, Inc., Armonk, N.Y.) for 1.5 minutes.
The samples were incubated at 37° C. for approximately twenty hours, after which time the cured discs were removed from the broth and were gently rinsed with water. Each disc was placed in a separate test tube containing five milliliters of 1M aqueous sodium hydroxide solution, and each test tube was then sonicated for two minutes using a model SH1012-40-8 ultrasonic generator (manufactured by Branson Ultrasonics Corp., Danbury, Conn.) for two minutes to dislodge biofilm on the disc. The optical absorbance (optical density) of each aqueous sodium hydroxide solution was then measured at 550 nm using a Model ULTROSPEC III UV-visible spectrophotometer (manufactured by Pharmacia AB, Uppsala, Sweden). For each compound of the dental composition, five discs were separately incubated in broth and were evaluated separately to provide five optical density measurements. The average of the five optical density measurements was then calculated. […] The average optical density of the control or comparative samples was determined as described above. […] The ratio was considered to be proportional to the average amount of biofilm on the five cured discs, i.e., relatively low average optical density ratio was considered to be indicative of inhibition of biofilm formation. The ratio for the control was 100%.
(§1) The Quantitative Biofilm Inhibition Test was carried out using five compounds of the dental composition and eleven comparative compounds, each at a concentration of 1 weight percent. […] In addition, the Qualitative Biofilm Inhibition Test was carried out for each Example and Comparative Example, in which each disc was visually examined before it was placed in the tube containing the aqueous sodium hydroxide solution.

[2] = test system: Streptococcus mutans culture (ATCC 25175); test: Qualitative Biofilm Inhibition Test; set-up: key: +: refers to a visual assessment that a compound inhibited biofilm formation; −: refers to a visual assessment that either a compound did not inhibit biofilm formation, or that bacteria grew in the culture broth; settings: 1 weight percent compound; visible biofilm on disc after incubation and rinse
Protocol: as §1, with “During the procedure for the Quantitative Biofilm Inhibition Test, each cured disc was visually examined after it was removed from the broth (and rinsed with water) and before it was placed in a test tube containing five milliliters of 1M aqueous sodium hydroxide solution. The presence or absence of visible biofilm on a disc was noted. The” for “The”

[3] = test system: Streptococcus mutans culture (ATCC 25175); test: Biofilm Inhibition Test: concentration of compound to inhibit biofilm formation at varied sucrose; settings: tested at 50 or 150 millimolar
Protocol: Compounds of the dental compositions of the invention, and comparative compounds, were evaluated for biofilm inhibition activity. Composite dental restorative (available under the trade designation “FILTEK SUPREME” from 3M ESPE Dental Products, St. Paul, Minn.) was placed in a 15 millimeter by 1 millimeter stainless steel die. The open ends of the die were then covered with polyester film and the die was subjected to a pressure of 68.95 MPa using a hydraulic press. While the die containing the composite restorative was under compression, the composite was irradiated for two minutes using a Model ACE light source (available from SCHOTT North America, Inc., Auburn, N.Y.). The discs of cured composite restorative were then further cured using a Model UniXS light box (available from Heraeus Kulzer, Inc., Armonk, N.Y.) for 1.5 minutes.
The cured discs of composite restorative were then immersed in ten milliliters of Streptococcus mutans culture (ATCC 25175; 10^6 CFU/mL) prepared in brain heart infusion broth that contained 1.0 weight percent sucrose and 1 weight percent of a compound of the dental composition. The samples were incubated at 37° C. for approximately twenty hours, after which time the cured discs were removed from the broth and were gently rinsed with water. Each disc was placed in a separate test tube containing five milliliters of 1M aqueous sodium hydroxide solution, and each test tube was then sonicated for two minutes using a model SH1012-40-8 ultrasonic generator (manufactured by Branson Ultrasonics Corp., Danbury, Conn.) for two minutes to dislodge biofilm on the disc. The optical absorbance (optical density) of each aqueous sodium hydroxide solution was then measured at 550 nm using a Model ULTROSPEC III UV-visible spectrophotometer (manufactured by Pharmacia AB, Uppsala, Sweden). For each compound of the dental composition, five discs were separately incubated in broth and were evaluated separately to provide five optical density measurements. The average of the five optical density measurements was then calculated. […] The average optical density of the control or comparative samples was determined as described above. The ratio, expressed as a percentage, of the average optical density for each compound sample to the average optical density for a control sample was calculated by dividing the average optical density for each compound sample by the average optical density for a control sample and multiplying the result by one hundred. The ratio was considered to be proportional to the average amount of biofilm on the five cured discs, i.e., relatively low average optical density ratio was considered to be indicative of inhibition of biofilm formation. The ratio for the control was 100%.
During the procedure for the Quantitative Biofilm Inhibition Test, each cured disc was visually examined after it was removed from the broth (and rinsed with water) and before it was placed in a test tube containing five milliliters of 1M aqueous sodium hydroxide solution. The presence or absence of visible biofilm on a disc was noted.
The Biofilm Inhibition Test was carried out, using four compounds of the dental composition, in broth containing 1.0, 2.5, or 5.0 weight percent sucrose and the exemplary compounds of the dental composition at a concentration of either 50 millimolar or 150 millimolar. In Table 2, the millimolar concentration of compound that inhibited biofilm formation is given for each concentration of sucrose. An entry of “n/t” means that the compound was not tested in broth containing the corresponding concentration of sucrose.

[4] = test system: Streptococcus mutans; test: Bacterial Kill Rate Test
Protocol: Compounds of the dental compositions of the invention were evaluated for extent of bacterial kill in culture. Overnight cultures of Streptococcus mutans in brain heart infusion broth (10^6 CFU/mL) was mixed with a 0.1 weight percent, 0.5 weight percent, or 1.0 weight percent aqueous solution of each compound of the dental composition. After a period of 2, 5, or 10 minutes, 1.0 mL of the mixture was transferred via pipette into a first tube containing 9.0 mL of Letheen broth to provide a 10^−1 dilution. The contents of the tube were mixed using a vortex mixer. A 1.0 mL aliquot of this sample was transferred via pipette into a second tube containing 9.0 mL of Letheen broth to provide a 10^−2 dilution. A 0.1 mL aliquot of each dilution was plated and spread in duplicate on sheep blood agar in Petri dishes, using a “hockey stick” applicator, to provide 10^−2 and 10^−3 dilutions, respectively, on each plate. The plates were incubated at 37° C. for a period of 48 to 72 hours, and then the colony forming units were counted. The CFU counts were compared and the log reduction in the counts were calculated. In Table 3, the bacteria count reduction (log reduction) is the difference between the log of the initial bacteria count and the log of the bacteria count after 2, 5, and 10 minutes.

SMILES	OD Ratio [1]	Visual Assessment [2]	Concentration of Compound to Inhibit Biofilm Formation ([3]; 1 wt% Sucrose)	Concentration of Compound to Inhibit Biofilm Formation ([3]; 2.5 wt% Sucrose)	Concentration of Compound to Inhibit Biofilm Formation ([3]; 5 wt% Sucrose)	Bacteria Count Reduction (log reduction) ([4]; 0.1 wt % compound, 2 min.)	Bacteria Count Reduction (log reduction) ([4]; 0.1 wt % compound, 5 min.)	Bacteria Count Reduction (log reduction) ([4]; 0.1 wt % compound, 10 min.)	Bacteria Count Reduction (log reduction) ([4]; 0.5 wt % compound, 2 min.)	Bacteria Count Reduction (log reduction) ([4]; 0.5 wt % compound, 5 min.)	Bacteria Count Reduction (log reduction) ([4]; 0.5 wt % compound, 10 min.)	Bacteria Count Reduction (log reduction) ([4]; 1.0 wt % compound, 2 min.)	Bacteria Count Reduction (log reduction) ([4]; 1.0 wt % compound, 5 min.)	Bacteria Count Reduction (log reduction) ([4]; 1.0 wt % compound, 10 min.)	activity at 1 % w/w [1]
N[C@H]1C(O)O[C@H](CO)[C@@H](O)[C@@H]1O (stereo partly drawn) [Glucosamine HCl, D-glucosamine]	0%	+	50 mM	50 mM	50 mM	1.03 log reduction	0.94 log reduction	0.97 log reduction	0.99 log reduction	0.98 log reduction	0.93 log reduction	0.93 log reduction	0.99 log reduction	0.97 log reduction	
N[C@H]1C(O)O[C@H](CO)[C@@H](O)[C@@H]1O (stereo partly drawn) [Glucosamine Sulfate, D-glucosamine]	2%	+	50 mM		150 mM	0.95 log reduction	0.75 log reduction	0.87 log reduction	0.78 log reduction	0.80 log reduction	0.81 log reduction	0.95 log reduction	0.89 log reduction	0.97 log reduction	
N[C@H]1C(O)O[C@H](COP(=O)(O)O)[C@@H](O)[C@@H]1O (stereo partly drawn) [Glucosamine-6-Phosphate, D-glucosamine-6-phosphate]		+	50 mM			0.99 log reduction	0.88 log reduction	1.06 log reduction	0.95 log reduction	1.11 log reduction	1.23 log reduction	1.12 log reduction	1.41 log reduction	2.09 log reduction	2%
N[C@@H]1C(O)O[C@H](CO)[C@@H](O)[C@@H]1O (stereo partly drawn) [Mannosamine HCl, D-mannosamine]		+	50 mM	50 mM	50 mM	1.01 log reduction	0.82 log reduction	0.95 log reduction	0.96 log reduction	0.98 log reduction	1.00 log reduction	0.96 log reduction	1.09 log reduction	0.99 log reduction	0%
